Source: PMC4917279 (Journal of Medicinal Chemistry, 2016)

Assays:
Assay in all cases: KINOMEscan
Type in all cases: binding
Conditions in all cases: read-out: %Ctrl @ 1000 nM
[1] = biological target: T1, ABL1(H396P)-nonphosphorylated (Homo sapiens, UniProt P00519, H396P)
T1 construct: purchased DiscoveRx (KINOMEscan service)

AKT3 = biological target: T2, AKT3 (Homo sapiens, UniProt Q9Y243)
T2 construct: purchased DiscoveRx KINOMEscan

ALK = biological target: T3, ALK (Homo sapiens, UniProt Q9UM73)
T3 construct: purchased DiscoveRx KINOMEscan

BIKE = biological target: T4, BIKE (Homo sapiens, UniProt Q9NSY1)
T4 construct: purchased DiscoveRx KINOMEscan

CDK4-cyclinD3 = biological target: T5, CDK4-cyclinD3 (Homo sapiens, UniProt P11802)
T5 construct: purchased DiscoveRx KINOMEscan

CSNK1E = biological target: T6, CSNK1E (Homo sapiens, UniProt P49674)
T6 construct: purchased DiscoveRx KINOMEscan

CSNK1G3 = biological target: T7, CSNK1G3 (Homo sapiens, UniProt Q9Y6M4)
T7 construct: purchased DiscoveRx KINOMEscan

DDR2 = biological target: T8, DDR2 (Homo sapiens, UniProt Q16832)
T8 construct: purchased DiscoveRx KINOMEscan

ERK2 = biological target: T9, ERK2 (Homo sapiens, UniProt P28482)
T9 construct: purchased DiscoveRx KINOMEscan

ERK3 = biological target: T10, ERK3 (Homo sapiens, UniProt Q16659)
T10 construct: purchased DiscoveRx KINOMEscan

FLT3 = biological target: T11, FLT3 (Homo sapiens, UniProt P36888)
T11 construct: purchased DiscoveRx KINOMEscan

IKK-beta = biological target: T12, IKK-beta (Homo sapiens, UniProt O14920)
T12 construct: purchased DiscoveRx KINOMEscan

KIT(V559D,V654A) = biological target: T13, KIT(V559D,V654A) (Homo sapiens, UniProt P10721, V559D/V654A)
T13 construct: purchased DiscoveRx KINOMEscan

LCK = biological target: T14, LCK (Homo sapiens, UniProt P06239)
T14 construct: purchased DiscoveRx KINOMEscan

LKB1 = biological target: T15, LKB1 (Homo sapiens, UniProt Q15831)
T15 construct: purchased DiscoveRx KINOMEscan

LYN = biological target: T16, LYN (Homo sapiens, UniProt P07948)
T16 construct: purchased DiscoveRx KINOMEscan

MAP3K2 = biological target: T17, MAP3K2 (Homo sapiens, UniProt Q9Y2U5)
T17 construct: purchased DiscoveRx KINOMEscan

MAP3K4 = biological target: T18, MAP3K4 (Homo sapiens, UniProt Q9Y6R4)
T18 construct: purchased DiscoveRx KINOMEscan

MAP4K5 = biological target: T19, MAP4K5 (Homo sapiens, UniProt Q9Y4K4)
T19 construct: purchased DiscoveRx KINOMEscan

MARK2 = biological target: T20, MARK2 (Homo sapiens, UniProt Q7KZI7)
T20 construct: purchased DiscoveRx KINOMEscan

MARK4 = biological target: T21, MARK4 (Homo sapiens, UniProt Q96L34)
T21 construct: purchased DiscoveRx KINOMEscan

MET = biological target: T22, MET (Homo sapiens, UniProt P08581)
T22 construct: purchased DiscoveRx KINOMEscan

MKNK1 = biological target: T23, MKNK1 (Homo sapiens, UniProt Q9BUB5)
T23 construct: purchased DiscoveRx KINOMEscan

MLK2 = biological target: T24, MLK2 (Homo sapiens, UniProt Q02779)
T24 construct: purchased DiscoveRx KINOMEscan

MST3 = biological target: T25, MST3 (Homo sapiens, UniProt Q9Y6E0)
T25 construct: purchased DiscoveRx KINOMEscan

NEK4 = biological target: T26, NEK4 (Homo sapiens, UniProt P51957)
T26 construct: purchased DiscoveRx KINOMEscan

PAK7 = biological target: T27, PAK7 (Homo sapiens, UniProt Q9P286)
T27 construct: purchased DiscoveRx KINOMEscan

PDGFRA = biological target: T28, PDGFRA (Homo sapiens, UniProt P16234)
T28 construct: purchased DiscoveRx KINOMEscan

PFCDPK1(P.falciparum) = biological target: T29, PFCDPK1(P.falciparum) (Plasmodium falciparum, UniProt P62344)
T29 construct: purchased DiscoveRx KINOMEscan

PHKG2 = biological target: T30, PHKG2 (Homo sapiens, UniProt P15735)
T30 construct: purchased DiscoveRx KINOMEscan

PIK3C2G = biological target: T31, PIK3C2G (Homo sapiens, UniProt O75747)
T31 construct: purchased DiscoveRx KINOMEscan

PIK3CA(M1043I) = biological target: T32, PIK3CA(M1043I) (Homo sapiens, UniProt P42336, M1043I)
T32 construct: purchased DiscoveRx KINOMEscan

PIP5K1A = biological target: T33, PIP5K1A (Homo sapiens, UniProt Q99755)
T33 construct: purchased DiscoveRx KINOMEscan

PIP5K2B = biological target: T34, PIP5K2B (Homo sapiens, UniProt P78356)
T34 construct: purchased DiscoveRx KINOMEscan

PKMYT1 = biological target: T35, PKMYT1 (Homo sapiens, UniProt Q99640)
T35 construct: purchased DiscoveRx KINOMEscan

PRKCE = biological target: T36, PRKCE (Homo sapiens, UniProt Q02156)
T36 construct: purchased DiscoveRx KINOMEscan

RET = biological target: T37, RET (Homo sapiens, UniProt P07949)
T37 construct: purchased DiscoveRx KINOMEscan

[2] = biological target: T38, RPS6KA5(Kin.Dom.1-N-terminal) (Homo sapiens, UniProt O75582)
T38 construct: RPS6KA5(Kin.Dom.1-N-terminal); purchased DiscoveRx KINOMEscan

SG110 = biological target: T39, SG110 (Homo sapiens, UniProt P0C264)
T39 construct: purchased DiscoveRx KINOMEscan

SLK = biological target: T40, SLK (Homo sapiens, UniProt Q9H2G2)
T40 construct: purchased DiscoveRx KINOMEscan

TRKA = biological target: T41, TRKA (Homo sapiens, UniProt P04629)
T41 construct: purchased DiscoveRx KINOMEscan

WNK1 = biological target: T42, WNK1 (Homo sapiens, UniProt Q9H4A3)
T42 construct: purchased DiscoveRx KINOMEscan

WNK3 = biological target: T43, WNK3 (Homo sapiens, UniProt Q9BYP7)
T43 construct: purchased DiscoveRx KINOMEscan

T28 sequence (P16234 24-1089): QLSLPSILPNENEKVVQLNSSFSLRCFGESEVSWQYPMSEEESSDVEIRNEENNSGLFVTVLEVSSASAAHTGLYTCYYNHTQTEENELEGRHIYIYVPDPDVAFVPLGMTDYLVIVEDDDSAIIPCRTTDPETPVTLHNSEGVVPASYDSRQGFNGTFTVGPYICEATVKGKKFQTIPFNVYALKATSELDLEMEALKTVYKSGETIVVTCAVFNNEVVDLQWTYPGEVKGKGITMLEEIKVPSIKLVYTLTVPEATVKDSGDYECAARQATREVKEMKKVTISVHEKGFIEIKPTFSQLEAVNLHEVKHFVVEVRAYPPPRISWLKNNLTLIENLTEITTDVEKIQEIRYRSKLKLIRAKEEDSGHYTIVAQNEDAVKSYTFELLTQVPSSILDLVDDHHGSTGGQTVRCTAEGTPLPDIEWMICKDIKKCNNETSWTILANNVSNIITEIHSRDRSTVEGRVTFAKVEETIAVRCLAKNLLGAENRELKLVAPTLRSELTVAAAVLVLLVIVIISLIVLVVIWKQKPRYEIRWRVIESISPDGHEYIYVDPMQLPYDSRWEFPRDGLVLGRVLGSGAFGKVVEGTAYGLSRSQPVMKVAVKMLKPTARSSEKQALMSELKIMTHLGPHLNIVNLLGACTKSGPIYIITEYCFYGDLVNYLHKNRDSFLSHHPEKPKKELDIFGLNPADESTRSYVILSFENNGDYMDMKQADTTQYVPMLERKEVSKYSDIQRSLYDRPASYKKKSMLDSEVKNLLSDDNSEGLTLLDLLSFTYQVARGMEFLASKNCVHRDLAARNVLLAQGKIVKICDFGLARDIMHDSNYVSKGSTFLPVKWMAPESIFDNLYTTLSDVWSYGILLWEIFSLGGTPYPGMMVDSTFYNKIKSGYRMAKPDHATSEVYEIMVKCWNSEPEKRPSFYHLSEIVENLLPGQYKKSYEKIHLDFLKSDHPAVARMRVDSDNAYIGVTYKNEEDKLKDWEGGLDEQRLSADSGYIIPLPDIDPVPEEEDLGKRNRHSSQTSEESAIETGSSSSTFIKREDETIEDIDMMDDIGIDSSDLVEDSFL
T12 sequence (O14920 whole entry): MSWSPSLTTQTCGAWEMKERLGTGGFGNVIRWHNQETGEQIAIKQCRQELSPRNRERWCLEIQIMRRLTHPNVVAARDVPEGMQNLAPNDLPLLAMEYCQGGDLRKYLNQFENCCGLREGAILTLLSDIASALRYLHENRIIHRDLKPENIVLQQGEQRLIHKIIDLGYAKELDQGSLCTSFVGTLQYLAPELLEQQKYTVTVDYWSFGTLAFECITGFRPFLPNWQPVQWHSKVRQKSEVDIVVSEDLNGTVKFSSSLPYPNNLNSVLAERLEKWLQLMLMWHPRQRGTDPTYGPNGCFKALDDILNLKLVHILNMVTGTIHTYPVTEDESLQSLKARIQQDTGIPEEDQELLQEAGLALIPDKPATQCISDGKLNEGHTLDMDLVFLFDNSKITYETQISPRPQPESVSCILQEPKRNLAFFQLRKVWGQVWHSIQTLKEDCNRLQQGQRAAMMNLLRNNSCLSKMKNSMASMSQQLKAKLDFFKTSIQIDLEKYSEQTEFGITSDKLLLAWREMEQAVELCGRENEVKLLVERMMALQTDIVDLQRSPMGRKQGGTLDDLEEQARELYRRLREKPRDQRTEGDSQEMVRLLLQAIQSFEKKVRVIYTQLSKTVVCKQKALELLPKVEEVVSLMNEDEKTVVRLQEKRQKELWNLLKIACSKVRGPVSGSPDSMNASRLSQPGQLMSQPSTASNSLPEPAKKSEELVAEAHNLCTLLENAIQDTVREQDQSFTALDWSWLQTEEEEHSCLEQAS
T40 sequence (Q9H2G2 whole entry): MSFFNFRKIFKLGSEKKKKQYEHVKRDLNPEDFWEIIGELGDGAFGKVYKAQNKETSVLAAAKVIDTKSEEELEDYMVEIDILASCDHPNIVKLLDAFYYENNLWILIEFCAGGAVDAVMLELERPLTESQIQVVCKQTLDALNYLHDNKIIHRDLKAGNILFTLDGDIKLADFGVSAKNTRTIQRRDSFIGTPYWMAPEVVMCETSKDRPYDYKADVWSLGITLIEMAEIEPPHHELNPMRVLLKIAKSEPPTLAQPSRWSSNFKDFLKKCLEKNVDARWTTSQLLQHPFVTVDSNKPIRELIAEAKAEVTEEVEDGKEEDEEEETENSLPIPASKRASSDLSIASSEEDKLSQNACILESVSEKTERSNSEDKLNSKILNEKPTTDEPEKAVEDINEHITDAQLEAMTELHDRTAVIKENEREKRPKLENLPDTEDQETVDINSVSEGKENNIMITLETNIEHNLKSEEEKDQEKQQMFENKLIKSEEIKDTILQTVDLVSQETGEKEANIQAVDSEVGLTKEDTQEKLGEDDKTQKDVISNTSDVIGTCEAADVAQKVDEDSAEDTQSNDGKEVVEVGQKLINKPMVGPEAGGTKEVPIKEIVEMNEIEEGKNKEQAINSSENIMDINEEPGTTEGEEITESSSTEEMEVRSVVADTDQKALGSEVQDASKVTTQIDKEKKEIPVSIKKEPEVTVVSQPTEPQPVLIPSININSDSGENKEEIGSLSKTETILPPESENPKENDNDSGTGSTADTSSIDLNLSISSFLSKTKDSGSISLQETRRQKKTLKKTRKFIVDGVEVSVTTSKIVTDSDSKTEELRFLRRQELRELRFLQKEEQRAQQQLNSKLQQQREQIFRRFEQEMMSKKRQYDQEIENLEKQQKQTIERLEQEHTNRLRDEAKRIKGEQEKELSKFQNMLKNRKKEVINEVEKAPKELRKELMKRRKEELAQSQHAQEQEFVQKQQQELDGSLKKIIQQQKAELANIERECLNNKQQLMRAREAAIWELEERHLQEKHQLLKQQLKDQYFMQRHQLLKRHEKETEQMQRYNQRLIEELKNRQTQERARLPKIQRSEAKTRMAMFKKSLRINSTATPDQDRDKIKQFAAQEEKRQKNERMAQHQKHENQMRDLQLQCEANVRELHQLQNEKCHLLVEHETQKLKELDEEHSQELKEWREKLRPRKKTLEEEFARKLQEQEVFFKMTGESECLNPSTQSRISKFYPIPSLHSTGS
T27 sequence (Q9P286 whole entry): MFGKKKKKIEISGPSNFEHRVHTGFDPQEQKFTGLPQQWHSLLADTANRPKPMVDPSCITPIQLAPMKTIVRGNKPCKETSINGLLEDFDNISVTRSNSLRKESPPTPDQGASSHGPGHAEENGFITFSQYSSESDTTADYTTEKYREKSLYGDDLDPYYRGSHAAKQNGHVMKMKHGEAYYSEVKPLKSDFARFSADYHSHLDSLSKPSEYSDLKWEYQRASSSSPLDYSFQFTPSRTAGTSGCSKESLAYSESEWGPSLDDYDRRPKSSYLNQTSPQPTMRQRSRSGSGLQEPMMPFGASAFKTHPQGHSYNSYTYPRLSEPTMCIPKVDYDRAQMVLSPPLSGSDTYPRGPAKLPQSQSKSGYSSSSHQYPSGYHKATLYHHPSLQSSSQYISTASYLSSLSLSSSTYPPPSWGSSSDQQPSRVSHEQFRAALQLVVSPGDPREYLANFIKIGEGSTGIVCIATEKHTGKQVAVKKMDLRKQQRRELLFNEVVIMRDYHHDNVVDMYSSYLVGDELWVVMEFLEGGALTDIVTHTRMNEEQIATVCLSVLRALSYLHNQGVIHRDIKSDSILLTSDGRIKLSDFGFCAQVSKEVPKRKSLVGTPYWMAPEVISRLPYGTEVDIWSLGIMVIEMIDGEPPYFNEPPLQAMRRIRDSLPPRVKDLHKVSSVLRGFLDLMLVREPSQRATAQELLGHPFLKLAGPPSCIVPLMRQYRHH
T14 sequence (P06239 whole entry): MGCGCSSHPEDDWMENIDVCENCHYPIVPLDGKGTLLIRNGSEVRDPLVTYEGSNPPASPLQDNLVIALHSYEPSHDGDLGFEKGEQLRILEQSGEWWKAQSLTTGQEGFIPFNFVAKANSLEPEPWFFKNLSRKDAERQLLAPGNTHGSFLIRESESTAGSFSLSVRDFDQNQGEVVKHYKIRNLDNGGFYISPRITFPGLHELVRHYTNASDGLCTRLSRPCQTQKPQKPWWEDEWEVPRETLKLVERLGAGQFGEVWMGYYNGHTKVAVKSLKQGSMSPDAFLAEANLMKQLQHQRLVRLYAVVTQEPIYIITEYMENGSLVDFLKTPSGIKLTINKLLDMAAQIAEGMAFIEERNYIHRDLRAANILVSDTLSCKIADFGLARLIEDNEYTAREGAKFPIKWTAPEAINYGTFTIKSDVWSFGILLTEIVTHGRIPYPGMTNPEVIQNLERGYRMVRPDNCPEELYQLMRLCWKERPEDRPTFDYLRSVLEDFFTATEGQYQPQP
T29 sequence (P62344 whole entry): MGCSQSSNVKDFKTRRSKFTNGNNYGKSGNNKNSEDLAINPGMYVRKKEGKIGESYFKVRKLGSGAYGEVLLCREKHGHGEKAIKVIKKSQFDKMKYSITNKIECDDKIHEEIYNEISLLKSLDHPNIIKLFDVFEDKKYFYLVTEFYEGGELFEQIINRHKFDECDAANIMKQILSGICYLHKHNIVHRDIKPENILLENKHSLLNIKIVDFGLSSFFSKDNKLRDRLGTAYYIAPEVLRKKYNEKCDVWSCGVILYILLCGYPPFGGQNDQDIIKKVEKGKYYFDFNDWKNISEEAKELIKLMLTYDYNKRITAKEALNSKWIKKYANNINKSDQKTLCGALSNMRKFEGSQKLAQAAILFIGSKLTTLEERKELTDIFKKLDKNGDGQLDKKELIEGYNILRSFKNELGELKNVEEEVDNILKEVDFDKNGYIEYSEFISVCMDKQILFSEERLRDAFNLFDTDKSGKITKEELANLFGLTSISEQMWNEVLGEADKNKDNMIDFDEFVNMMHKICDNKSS

Compound: CCN(C(=O)CO)[C@H]1CN(/C(=N\C#N)Nc2cccc(OC(F)F)c2)N=C1c1ccc(Cl)c(Cl)c1 [(S)-4]
- remaining binding at 1 µM [1]: 92%
- remaining binding at 1 µM (AKT3): 100%
- remaining binding at 1 µM (ALK): 93%
- remaining binding at 1 µM (BIKE): 80%
- remaining binding at 1 µM (CDK4-cyclinD3): 100%
- remaining binding at 1 µM (CSNK1E): 86%
- remaining binding at 1 µM (CSNK1G3): 79%
- remaining binding at 1 µM (DDR2): 100%
- remaining binding at 1 µM (ERK2): 98%
- remaining binding at 1 µM (ERK3): 77%
- remaining binding at 1 µM (FLT3): 92%
- remaining binding at 1 µM (IKK-beta): 100%
- remaining binding at 1 µM (KIT(V559D,V654A)): 100%
- remaining binding at 1 µM (LCK): 66%
- remaining binding at 1 µM (LKB1): 83%
- remaining binding at 1 µM (LYN): 80%
- remaining binding at 1 µM (MAP3K2): 100%
- remaining binding at 1 µM (MAP3K4): 75%
- remaining binding at 1 µM (MAP4K5): 100%
- remaining binding at 1 µM (MARK2): 99%
- remaining binding at 1 µM (MARK4): 75%
- remaining binding at 1 µM (MET): 100%
- remaining binding at 1 µM (MKNK1): 100%
- remaining binding at 1 µM (MLK2): 77%
- remaining binding at 1 µM (MST3): 100%
- remaining binding at 1 µM (NEK4): 100%
- remaining binding at 1 µM (PAK7): 100%
- remaining binding at 1 µM (PDGFRA): 100%
- remaining binding at 1 µM (PFCDPK1(P.falciparum)): 76%
- remaining binding at 1 µM (PHKG2): 99%
- remaining binding at 1 µM (PIK3C2G): 77%
- remaining binding at 1 µM (PIK3CA(M1043I)): 68%
- remaining binding at 1 µM (PIP5K1A): 70%
- remaining binding at 1 µM (PIP5K2B): 100%
- remaining binding at 1 µM (PKMYT1): 100%
- remaining binding at 1 µM (PRKCE): 92%
- remaining binding at 1 µM (RET): 91%
- remaining binding at 1 µM [2]: 93%
- remaining binding at 1 µM (SG110): 92%
- remaining binding at 1 µM (SLK): 66%
- remaining binding at 1 µM (TRKA): 93%
- remaining binding at 1 µM (WNK1): 100%
- remaining binding at 1 µM (WNK3): 93%
